Among the test systems are HCT-116 colon; LOX IMVI melanoma; IGROV1 ovarian; NCI-H23 lung; PC-3 prostate; DU-145 prostate; NCI-H460 lung; CAKI-1 renal; NCI/ADR-RES ovarian; MDA-MB-435.
Common to all, as to test: inhibition of tumour cell growth, NCI panel, 48 h

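These data come from cells grown in 96-well plates and exposed to compound for 48 hours at five concentrations. GI50 is the concentration that inhibits growth by half. TGI is the concentration that stops growth completely.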 Bounds are passed on as bounds.

On to `COc1cc2ccc(CC(N)=O)cc2cc1OC`, for which the TGI with HCT-116 colon, in the test with LOX IMVI melanoma, in the test with IGROV1 ovarian and in the test on NCI-H23 lung was more than 100 µM throughout.

`COc1ccc(/C(=N/O)c2cc(OC)c(OC)c(OC)c2)c(OC)c1N`: the GI50 in the test with PC-3 prostate is 3.97 µM; in the test with DU-145 prostate, 4.67 µM; in the test on HCT-116 colon, 3.41 µM; with LOX IMVI melanoma it was 7.28 µM; in the test on NCI-H460 lung, 3.92 µM; in the test with IGROV1 ovarian it was 7.71 µM. The values for the GI50 in the test on NCI-H23 lung and with CAKI-1 renal were 7.06 µM and 5.53 µM, respectively. Besides, the TGI with PC-3 prostate, with DU-145 prostate, with HCT-116 colon, in the test on LOX IMVI melanoma, with NCI-H460 lung and in the test with IGROV1 ovarian was more than 100 µM each time. Besides, the TGI in the test on NCI-H23 lung and in the test on CAKI-1 renal was more than 100 µM in each case.

Consider `O=C(COc1ccc(-c2nc3cc(Cl)c(Cl)cc3[nH]2)cc1)N=Nc1c(O)[nH]c2ccccc12`, for which the GI50 was 1.51 µM in the test with DU-145 prostate; 9.12 µM in the test on HCT-116 colon; 1.02 µM with LOX IMVI melanoma; more than 100 µM with NCI/ADR-RES ovarian; 3.13 µM in the test with IGROV1 ovarian; 3.03 µM in the test on NCI-H23 lung. In the test with CAKI-1 renal, the GI50 is 6.91 µM. Moreover, the TGI in the test on DU-145 prostate was more than 100 µM; in the test on HCT-116 colon, more than 100 µM; with LOX IMVI melanoma, 2.64 µM; in the test with NCI/ADR-RES ovarian it was more than 100 µM; with IGROV1 ovarian, more than 53.3 µM; in the test on NCI-H23 lung, 15.1 µM. This molecule yielded a TGI in the test with CAKI-1 renal of more than 100 µM.

In the case of `Cc1ccc(C)c2c(N=Nc3ccccc3[N+](=O)[O-])c(O)[nH]c12`, the TGI with PC-3 prostate, with DU-145 prostate, with HCT-116 colon, in the test on LOX IMVI melanoma, in the test on MDA-MB-435 and in the test on NCI-H460 lung was more than 100 µM in each case. For the same molecule, the TGI with IGROV1 ovarian, in the test on NCI-H23 lung and with CAKI-1 renal was more than 100 µM throughout.

Turning to `Cc1cc2c(=O)cc(-c3ccc(F)cc3)oc2c(C(=O)O)c1C`, the TGI in the test on HCT-116 colon, in the test on LOX IMVI melanoma, with NCI-H460 lung, in the test with IGROV1 ovarian, in the test with NCI-H23 lung and in the test with CAKI-1 renal was more than 100 µM in each case.

`O=C(Sc1sc(=S)sc1SC(=O)c1ccccc1)c1ccccc1`: the TGI in the test with HCT-116 colon, with IGROV1 ovarian, with NCI-H23 lung and in the test with CAKI-1 renal was more than 100 µM each time.

On to `CCOP(=O)(CC(=O)C1=C(O)C(CCCCNC(=O)OC(C)(C)C)N(Cc2ccccc2)C1=O)OCC` (stereo unspecified), for which the TGI in the test with HCT-116 colon, in the test on LOX IMVI melanoma, with NCI-H460 lung, in the test on IGROV1 ovarian, in the test with NCI-H23 lung and with CAKI-1 renal was more than 100 µM throughout.

On to `CCN(CC)CCC(=O)/C=C/c1ccc(C)cc1`, for which the TGI in the test with HCT-116 colon was 26.2 µM; in the test with LOX IMVI melanoma it was 14.6 µM; in the test with NCI-H460 lung, 38.3 µM; in the test with IGROV1 ovarian it was 30 µM; in the test with NCI-H23 lung it was 32.4 µM; in the test with CAKI-1 renal, 3.28 µM.

As to `COc1cc2c(cc1OC)[C@@H]([C@H](O)c1ccccc1)NCC2`, the TGI in the test with HCT-116 colon, in the test with LOX IMVI melanoma, in the test on NCI-H460 lung, in the test on IGROV1 ovarian, in the test with NCI-H23 lung and in the test on CAKI-1 renal was more than 100 µM in each case.

For `C/C=C1\CCC2c3[nH]c4ccccc4c3CCN2C1` (stereo unspecified), the TGI with HCT-116 colon, in the test with NCI-H460 lung, in the test with IGROV1 ovarian, in the test with NCI-H23 lung and in the test with CAKI-1 renal was more than 100 µM throughout.

For `C[C@]12CC[C@@H]3c4ccc(O)cc4CC[C@H]3[C@@H]1CC[C@@H]2NS(=O)(=O)c1ccc2ccccc2c1`, the GI50 in the test on PC-3 prostate was 2.75 µM; in the test on DU-145 prostate it was 4.14 µM; with HCT-116 colon, 2.98 µM; with MDA-MB-435, 2.31 µM; in the test with NCI/ADR-RES ovarian, 2.61 µM; with NCI-H460 lung, 2.21 µM. Moreover, the values for the GI50 in the test with IGROV1 ovarian, with NCI-H23 lung and with CAKI-1 renal were 4.1 µM, 3.34 µM and 3.16 µM, respectively. The TGI was found to be 17.3 µM in the test on PC-3 prostate; 17.5 µM with DU-145 prostate; 10.6 µM with HCT-116 colon; 5.89 µM in the test with MDA-MB-435; 8 µM with NCI/ADR-RES ovarian; 4.97 µM in the test on NCI-H460 lung. The TGI in the test with IGROV1 ovarian came to 17.2 µM; in the test with NCI-H23 lung, 14.8 µM; in the test on CAKI-1 renal, 10.4 µM.

As for `CCCCCCCCCCCCCCNCC(OCC)OCC`, the TGI turned out to be 23.1 µM with HCT-116 colon; 32.5 µM with LOX IMVI melanoma; 34.3 µM with NCI-H460 lung; 30.3 µM with IGROV1 ovarian; 30.5 µM in the test on NCI-H23 lung.

Regarding `CN1C(=O)C(=CN(C)c2ccccc2)C(=O)N(C)C1=O`, the TGI with HCT-116 colon, in the test with LOX IMVI melanoma, in the test on NCI-H460 lung, in the test on IGROV1 ovarian and in the test on CAKI-1 renal was more than 100 µM each time.

In the case of `CC(=O)c1cccc(NC(=O)c2ccc(NC3=C(Cl)C(=O)N(Cc4ccccc4)C3=O)cc2)c1`, the GI50 in the test with PC-3 prostate was 15.9 µM; with DU-145 prostate it was 13.4 µM; with HCT-116 colon it was 12.6 µM; in the test with LOX IMVI melanoma, 13.9 µM; in the test on MDA-MB-435 it was 11.8 µM; with NCI/ADR-RES ovarian, 30.8 µM. Besides, the GI50 is 22.1 µM with NCI-H460 lung, 23 µM with NCI-H23 lung and 1.61 µM with CAKI-1 renal. Moreover, the TGI is 36.4 µM in the test with PC-3 prostate; 34.2 µM in the test on DU-145 prostate; 25.9 µM in the test with HCT-116 colon; 33.8 µM in the test with LOX IMVI melanoma; 30.1 µM with MDA-MB-435; more than 100 µM in the test on NCI/ADR-RES ovarian. The TGI in the test on NCI-H460 lung was more than 100 µM; in the test on NCI-H23 lung, 43.7 µM; in the test on CAKI-1 renal it was 3.05 µM.

For the molecule `C#CC(=O)OCC#CCOC(=O)C#C`, the TGI in the test on PC-3 prostate was more than 100 µM; in the test with DU-145 prostate, 90.3 µM; with HCT-116 colon it was 35.7 µM; in the test on LOX IMVI melanoma, 2.63 µM; in the test on MDA-MB-435 it was more than 100 µM; with NCI/ADR-RES ovarian it was 76.5 µM. Moreover, the TGI with NCI-H460 lung was more than 100 µM; in the test with NCI-H23 lung, 55 µM; in the test with CAKI-1 renal, 39.1 µM.

For the origin of these results see PubChem BioAssay (NCI).
